Test results taken from PubChem BioAssay AID1645862 (Buhrlage Lab, Dana-Farber Cancer Institute and Novartis …, 2021).
Active and inactive are the calls of the source. How the calls were made is not given here.

What follows are molecules tested against Ubiquitin carboxyl-terminal hydrolase 8 (Homo sapiens) (UniProt P40818) (assay: Ubiquitin-specific protease 8 inhibitors, concentration-effect, biochemical, validation of initial actives (AID 1645862;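 further: potency reflects inhibition of USP8 cleavage of a ubiquitin rhodamine substrate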)). Conditions: recombinant USP8 deubiquitinase activity assay.
Ubiquitin carboxyl-terminal hydrolase 8 (Homo sapiens), sequence (P40818 whole entry, looked up): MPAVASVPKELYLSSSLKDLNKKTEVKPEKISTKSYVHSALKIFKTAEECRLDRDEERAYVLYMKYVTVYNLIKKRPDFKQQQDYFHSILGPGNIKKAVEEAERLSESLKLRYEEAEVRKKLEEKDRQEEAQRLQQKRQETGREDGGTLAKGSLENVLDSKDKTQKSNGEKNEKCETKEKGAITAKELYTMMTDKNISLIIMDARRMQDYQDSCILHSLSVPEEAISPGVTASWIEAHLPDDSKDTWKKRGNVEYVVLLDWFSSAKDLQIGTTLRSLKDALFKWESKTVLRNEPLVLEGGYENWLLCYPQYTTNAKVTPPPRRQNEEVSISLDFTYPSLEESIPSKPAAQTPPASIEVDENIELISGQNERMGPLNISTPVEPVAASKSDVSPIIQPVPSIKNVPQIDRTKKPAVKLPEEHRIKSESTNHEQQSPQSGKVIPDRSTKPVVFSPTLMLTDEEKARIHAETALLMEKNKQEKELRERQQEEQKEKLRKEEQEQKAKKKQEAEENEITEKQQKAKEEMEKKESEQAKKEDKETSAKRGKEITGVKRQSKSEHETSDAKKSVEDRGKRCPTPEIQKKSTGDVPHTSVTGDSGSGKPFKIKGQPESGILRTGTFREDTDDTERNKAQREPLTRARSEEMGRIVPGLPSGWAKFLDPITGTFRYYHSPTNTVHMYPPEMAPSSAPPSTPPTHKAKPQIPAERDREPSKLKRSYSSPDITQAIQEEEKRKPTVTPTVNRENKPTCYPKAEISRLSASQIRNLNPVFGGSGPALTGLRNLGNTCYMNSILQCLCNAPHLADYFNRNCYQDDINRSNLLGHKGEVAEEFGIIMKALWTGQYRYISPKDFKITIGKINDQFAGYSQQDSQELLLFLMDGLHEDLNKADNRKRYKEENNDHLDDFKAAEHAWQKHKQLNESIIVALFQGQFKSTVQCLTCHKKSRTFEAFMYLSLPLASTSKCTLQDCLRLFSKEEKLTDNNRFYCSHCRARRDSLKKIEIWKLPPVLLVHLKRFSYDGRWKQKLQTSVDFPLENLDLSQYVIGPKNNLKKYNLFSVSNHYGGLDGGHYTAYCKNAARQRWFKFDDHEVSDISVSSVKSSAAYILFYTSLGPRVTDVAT
For COC(=O)c1ccc(Cn2nnc3c(=O)[nH]c(C4CCCN(S(=O)(=O)c5ccc(C)cc5)C4)nc32)cc1 (configuration not stated), the IC50 was > 40 µM (inactive). CCOc1ccc(NC(=O)Cn2cc(C(=O)c3ccc(Cl)cc3)c(=O)c3cc(OC)ccc32)cc1 was tested, and the IC50 was > 40 µM (inactive). In the case of O=C(CCCn1c(=O)c2sccc2n(CC(=O)NCCC2=CCCCC2)c1=O)NCc1ccc2c(c1)OCO2, the IC50 is reported as > 40 µM (inactive). In the case of O=C1c2c(O)c(Cl)cc3c2[C@@]2(Oc4ccc(O)c5c4[C@]3(O2)[C@@H]2O[C@@H]2C5=O)[C@@H]2O[C@H]12, the IC50 is reported as 1.09 µM. With COc1ccc(C(=O)NC(Cc2ccccc2)c2nc3ccccc3[nH]2)c(OC)c1 (configuration not stated) the IC50 was 9.44 µM. COc1ccc(CNC(=O)CN2C(=O)CC(c3ccccc3)=Nc3ccccc32)cc1 was tested, and the IC50 was > 40 µM (inactive). In the case of CCc1ccc(NC(=O)c2cc(C(F)(F)F)n(C)n2)cc1, the IC50 is reported as > 40 µM (inactive). For Cc1ccc(-n2c(=O)c3ccc(C(=O)NCc4ccco4)cc3n(CC(=O)NCCC3=CCCCC3)c2=O)cc1, the IC50 was > 40 µM (inactive). CCOc1ccc(Oc2nc(CN3CCCC3)nc3sc(C)c(C)c23)cc1 was tested, and the IC50 was > 40 µM (inactive). In the case of Cc1c(-c2nc(-c3ccccc3Cl)no2)nnn1-c1cccc(F)c1, the IC50 is reported as > 40 µM (inactive). In the case of O=C(c1cc2occc2c(Nc2ccc(F)cc2)n1)N1CCN(c2ccccc2)CC1, the IC50 is reported as > 40 µM (inactive). For COc1ccc(-c2n[nH]n3c2nc(=O)c2ccc(C(=O)NCc4ccco4)cc23)cc1, the IC50 was > 40 µM (inactive). In the case of N#Cc1cccc(NC(=O)Nc2cccn(Cc3ccc(F)cc3)c2=O)c1, the IC50 is reported as > 40 µM (inactive). With CC(=O)Nc1ccc(Cc2nc(-c3ccc4c(c3)nc(C)c(=O)n4C3CCCC3)no2)cc1 the IC50 was > 40 µM (inactive). With O=C(COc1cccc(-c2noc(-c3ccc([N+](=O)[O-])cc3)n2)c1)Nc1ccccc1 the IC50 was > 40 µM (inactive). For CCc1ccc(NC(=O)C(C)OC(=O)/C=C/c2ccc(S(=O)(=O)Nc3cccc(S(N)(=O)=O)c3)cc2)cc1 (configuration not stated), the IC50 was > 40 µM (inactive). With O=C(c1cscn1)N1CCC2(CC1)CC1(CO2)Nc2ccccc2-n2cccc21 (configuration not stated) the IC50 was > 40 µM (inactive). In the case of CCOc1ccc2cc3c(nc2c1)OC(=O)N(Cc1ccc(OC)cc1)C3, the IC50 is reported as 9.25 µM. Cc1ccnc(NS(=O)(=O)c2ccc(NC(=O)c3ccc(S(=O)(=O)N(C)Cc4ccccc4)cc3)cc2)n1 was tested, and the IC50 was > 40 µM (inactive). CCCc1ccc(C(=O)[C@@H]2[C@@H](C(=O)c3cccs3)N3c4ccc(C)cc4C(C)=C[C@@H]3[C@@]23C(=O)Nc2ccccc23)cc1 was tested, and the IC50 was > 40 µM (inactive). In the case of Cc1cccc(C)c1NC(=O)COc1ccccc1-c1nnc(-c2ccccc2)o1, the IC50 is reported as > 40 µM (inactive). Cc1ccc(C(=O)NCc2ccc(C(=O)Nc3ccc(Cl)cc3)o2)cc1 was tested, and the IC50 was > 40 µM (inactive). Cc1ccccc1NC(=O)Cc1csc2nc(-c3ccc(F)cc3)cn12 was tested, and the IC50 was > 40 µM (inactive). Molecule Cc1ccc(NC(=O)Cc2nnc3c(-c4nc(C5CC5)no4)cccn23)cc1F has an IC50 of 30.3 µM. Molecule CC(C)c1ccc(NC(=O)c2cc(-c3cccnc3)n[nH]2)cc1 has an IC50 of 28.6 µM. O=C(COc1ccc(N2CC(C(=O)NCc3ccccc3)CC2=O)cc1)Nc1ccc(F)cc1 (configuration not stated) was tested, and the IC50 was > 40 µM (inactive). With Cn1c(=O)[nH]c(=O)c2c1nc(N1CCc3ccccc3C1)n2CCSc1nnnn1-c1ccccc1 the IC50 was > 40 µM (inactive). In the case of COc1ccc(NC(=O)c2nnc(C(=O)NCCN3CCCCCC3)s2)cc1, the IC50 is reported as > 40 µM (inactive). CCc1ccc(CN(C)C(=O)c2ccc(NS(=O)(=O)c3ccc(F)c(F)c3)cc2)cc1 was tested, and the IC50 was > 40 µM (inactive). For O=C(NCc1ccco1)c1ccc(Cn2c(=O)c3sccc3n(Cc3cc(=O)n4ccccc4n3)c2=O)cc1, the IC50 was > 40 µM (inactive). Cc1cc(C)c(O)c(-c2cc(C(=O)Nc3ccccc3Cl)[nH]n2)c1 was tested, and the IC50 was > 40 µM (inactive). In the case of CC(=O)Nc1ccc(S(=O)(=O)NCc2ccc(C(=O)NCCc3ccc(Cl)cc3)cc2)cc1, the IC50 is reported as > 40 µM (inactive). With Cc1nnc(NC(=O)C2CC(=O)N(CCc3ccc(F)cc3)C2)s1 (configuration not stated) the IC50 was > 40 µM (inactive). In the case of COc1cc2c(c(OCC(=O)Nc3ccc4c(c3)OCCO4)c1)C(=O)O[C@@H](C)CCCC(=O)CCCCC2, the IC50 is reported as > 40 µM (inactive). N=C1/C(=C/c2cn(Cc3ccc(F)cc3)c3ccccc23)C(=O)N=C2SC(Cc3ccccc3)=NN12 was tested, and the IC50 was > 40 µM (inactive). With O=C(CSc1ccc(-c2ccccc2)nn1)Nc1ccc(F)c([N+](=O)[O-])c1 the IC50 was > 40 µM (inactive). In the case of Cc1ccc2c(c1)c1ncn(Cc3nc(C)no3)c(=O)c1n2CC(=O)NCc1ccccc1, the IC50 is reported as > 40 µM (inactive). For O=C(NCc1ccccc1Cl)C1CCN(c2ccc(-c3ccccc3)nn2)CC1, the IC50 was > 40 µM (inactive). With CCOc1ccc(-c2ccc3nnc(SCC(=O)Nc4ccc(F)cc4)n3n2)cc1 the IC50 was > 40 µM (inactive). In the case of O=C(NC1CCCC1)c1ccc(Cn2c(=O)c3ccccc3n(Cc3cc(=O)n4ccccc4n3)c2=O)cc1, the IC50 is reported as > 40 µM (inactive). With Cc1cc(-c2nnc(SCC(=O)Nc3ccc(Br)c(C)c3)n2N)n[nH]1 the IC50 was > 40 µM (inactive). In the case of COc1cc(O)cc2c1C(=O)OC(C)CCCCCCC2 (configuration not stated), the IC50 is reported as > 40 µM (inactive). N#Cc1cccc(NC(=O)c2[nH]nc3c2COc2ccccc2-3)c1 gave an IC50 of 38.3 µM. With Cc1cc(Cl)ccc1NC(=O)c1cc(-c2cccnc2)n[nH]1 the IC50 was > 40 µM (inactive). In the case of Cc1ccccc1-c1nnc2sc(COc3ccc(Cl)cc3)nn12, the IC50 is reported as > 40 µM (inactive). O=C(Nc1ccc(-c2cn3ccsc3n2)cc1)c1ccc(Cl)c([N+](=O)[O-])c1 showed an IC50 of 21.4 µM. With CCOc1ccc(-n2ccnc(SCC(=O)Nc3ccccc3F)c2=O)cc1 the IC50 was > 40 µM (inactive). For COc1cccc(CNc2ccc(-c3nc(-c4ccccc4)no3)nn2)c1, the IC50 was > 40 µM (inactive). COc1ccc(NC(=O)Cn2c(=O)n(CCCC(=O)NC3CCCC3)c(=O)c3cc(Cl)ccc32)c(OC)c1 was tested, and the IC50 was > 40 µM (inactive). CCOc1ccc(-n2c(SCC(=O)Nc3ccc(C)cc3)nnc2-c2c[nH]c3ccccc23)cc1 showed an IC50 of 28.1 µM. Cc1[nH]nc(NC(=O)C2COc3ccccc3O2)c1-c1ccccc1 (configuration not stated) gave an IC50 of 37.3 µM. For O=C(O)c1nccnc1C(=O)N1CCc2ccccc2C1, the IC50 was > 40 µM (inactive). Nc1c(-c2ccc(Cl)cc2)cnc2cc(-c3ccc(Cl)c(Cl)c3)nn12 was tested, and the IC50 was > 40 µM (inactive). For COc1ccc(C(=O)C(C)OC(=O)c2cccc(S(=O)(=O)Nc3cc([N+](=O)[O-])ccc3OC)c2)c(OC)c1 (configuration not stated), the IC50 was > 40 µM (inactive). For NS(=O)(=O)c1ccc(CNS(=O)(=O)/C=C/c2ccccc2)cc1, the IC50 was > 40 µM (inactive). O=C(Nc1ccc(-n2cccc2)cc1)c1cccc([N+](=O)[O-])c1 was tested, and the IC50 was > 40 µM (inactive). For O=C(CCCc1nnc2c(=O)n(-c3cccc(F)c3)ccn12)Nc1ccccc1, the IC50 was > 40 µM (inactive). For Cc1cc(C(=O)CSc2nc3ccccc3[nH]2)c(C)n1Cc1ccco1, the IC50 was > 40 µM (inactive). COc1cc(Cl)c(C)cc1NC(=O)Cn1c(=O)n(CC(=O)NCc2ccco2)c(=O)c2ccccc21 was tested, and the IC50 was > 40 µM (inactive). Cc1ccc(-c2nc3c(c(SCC(=O)c4ccccc4)n2)COC(C)(C)C3)cc1 was tested, and the IC50 was > 40 µM (inactive). CSc1ncccc1C(=O)NC1(O)C(=O)c2ccccc2C1=O gave an IC50 of 5.16 µM. O=C(Cn1c(=O)n(-c2ccc(Cl)cc2)c(=O)c2c3c(sc21)CCCC3)NCC1CCCO1 (configuration not stated) was tested, and the IC50 was > 40 µM (inactive). Cn1cc(NC(=O)Nc2cccc(C(F)(F)F)c2)c2ccccc2c1=O gave an IC50 of 9.33 µM. Cc1ccc(S(=O)(=O)N2CCC3(CC2)OC(=O)Nc2ccccc23)cc1 was tested, and the IC50 was > 40 µM (inactive). In the case of Cc1nc(-c2ccc(C(=O)Nc3ccc(F)cc3)cc2)cs1, the IC50 is reported as > 40 µM (inactive). With CCOc1cc2c(cc1OCC)C(c1cc3c(cc1Br)OCO3)NCC2 (configuration not stated) the IC50 was > 40 µM (inactive). With COc1cc2c(cc1OC)-c1cc(Nc3ccc(Br)cc3)nc(=O)n1CC2 the IC50 was > 40 µM (inactive). With O=C(/C=C/c1ccc(Br)cc1)Nc1cnc2ccccc2c1 the IC50 was > 40 µM (inactive). With Cc1ccc(CNC(=O)Cn2c(=O)n(CCCC(=O)NCc3ccc(F)cc3)c(=O)c3ccccc32)cc1 the IC50 was > 40 µM (inactive). With CCOC(=O)c1ccc(NC(=O)Cn2c(=O)n(CC(=O)NCc3ccco3)c(=O)c3ccccc32)cc1 the IC50 was > 40 µM (inactive). For CC(C)(C)C(=O)Nc1ccc(C(=O)Nc2cccc(-c3nnc(-c4ccccc4)o3)c2)cc1, the IC50 was > 40 µM (inactive). O=C(Nc1ccccc1C(=O)NC1CCSC1)c1ccc([N+](=O)[O-])cc1 (configuration not stated) was tested, and the IC50 was > 40 µM (inactive). With Cn1c(COc2cccc3cccnc23)nnc1SCC(=O)c1ccc(Cl)cc1Cl the IC50 was > 40 µM (inactive). For Cc1ccc(NC(=O)CSc2nnc(-c3n[nH]c4c3CCC4)n2N)cc1C, the IC50 was > 40 µM (inactive). Cc1cc(NS(=O)(=O)c2ccc(NC(=O)COc3ccc(Cl)cc3)cc2)no1 was tested, and the IC50 was > 40 µM (inactive). COc1ccc(Cl)cc1NC(=O)Cn1c(=O)n(CCCCC(=O)NCCc2ccccc2)c(=O)c2ccccc21 was tested, and the IC50 was > 40 µM (inactive). With COc1cc2c(=O)n(Cc3ccccc3)c(=O)n(CC(=O)N3CCCc4ccccc43)c2cc1OC the IC50 was > 40 µM (inactive). With O=C(CCn1c(=O)c2ccccc2n(CC(=O)OCc2ccccc2)c1=O)NCc1ccc2c(c1)OCO2 the IC50 was > 40 µM (inactive). Cc1cccc(OCC2=NN3C(=N)/C(=C\c4cc(C)n(-c5cc(C)cc(C)c5)c4C)C(=O)N=C3S2)c1 was tested, and the IC50 was > 40 µM (inactive). With O=C(CNC(=O)c1ccc2nc(-n3cccc3)sc2c1)NCc1cccc(Cl)c1 the IC50 was > 40 µM (inactive). COc1ccc(/C=C/C(=O)Nc2ccc3nc(N4CCN(c5ncccn5)CC4)cc(C)c3c2)cc1 was tested, and the IC50 was > 40 µM (inactive). For Cc1ccc(CNC(=O)CCCn2c(=O)c3sccc3n(CC(=O)Nc3cc(Cl)ccc3C)c2=O)cc1, the IC50 was > 40 µM (inactive). With O=C(CCCc1nnc2c(=O)n(-c3cccc(F)c3)ccn12)NCc1ccc(Cl)cc1 the IC50 was > 40 µM (inactive). With Cc1cc(C(=O)Nc2cc([N+](=O)[O-])cc3oc(-c4ccccc4)cc23)on1 the IC50 was > 40 µM (inactive). Cn1c(O)c(C2=Nc3ccccc3SC(c3cccc(O)c3)C2)c(=O)[nH]c1=O (configuration not stated) was tested, and the IC50 was > 40 µM (inactive). O=C(Nc1ccccc1)[C@@H]1[C@@H]2C(=O)N(c3ccc([N+](=O)[O-])cc3)C(=O)[C@@H]2[C@H]2c3ccccc3C=CN12 was tested, and the IC50 was 34 µM. For COC(=O)c1ccccc1NC(=O)Cn1c(=O)n(CCCC(=O)NCc2ccco2)c(=O)c2ccccc21, the IC50 was > 40 µM (inactive).
